Laboratory results as given in patent publication US7476517B2, “Virus like particles, their preparation and their use preferably in pharmaceutical screening and functional genomics” (Evotec AG, priority 1999, dated 2009).

What follows are compounds tested against T1, human ETA receptor (Homo sapiens, UniProt P25101) (assay: ETA receptor binding assay with FIDA analysis). Details: 1 μM non-labelled ligand; 2 nM TAMRA-labeled endothelin-1; membrane vesicles from CHO cells or VLPs from Sf9 cells; 30 minutes at room temperature.
T1 construct: Flag; made in house; host or cells: Sf9 insect cells co-infected with recombinant baculoviruses; VLPs pelleted from the culture supernatant
T1 sequence (P25101 21-427): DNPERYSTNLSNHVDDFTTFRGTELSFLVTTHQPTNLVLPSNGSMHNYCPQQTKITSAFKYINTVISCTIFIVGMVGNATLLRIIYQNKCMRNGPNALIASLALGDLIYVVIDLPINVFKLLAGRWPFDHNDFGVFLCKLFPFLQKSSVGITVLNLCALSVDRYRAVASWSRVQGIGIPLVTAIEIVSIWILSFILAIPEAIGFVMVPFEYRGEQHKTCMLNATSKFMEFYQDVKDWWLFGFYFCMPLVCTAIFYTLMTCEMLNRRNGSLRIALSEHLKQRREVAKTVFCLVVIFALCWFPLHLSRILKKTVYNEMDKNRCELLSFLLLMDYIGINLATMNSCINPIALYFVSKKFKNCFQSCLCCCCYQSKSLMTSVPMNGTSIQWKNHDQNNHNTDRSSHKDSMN
Protocol: After 30 minutes incubation at room temperature the mixture was analysed by FIDA using a beam scanner and 543 nm laser light for excitation.

| Compound | competition with TAMRA-labeled endothelin-1 for binding to the ETA receptor |
| --- | --- |
| endothelin-1 | competing ligand |
| big endothelin-1 | non-competing ligand |
| C[C@H](N)C(=O)NCC(=O)N[C@H]1CSSC[C@@H](C(=O)O)NC(=O)[C@H](CO)NC(=O)[C@H]([C@@H](C)O)NC(=O)[C@H](Cc2ccccc2)NC(=O)[C@H]([C@@H](C)O)NC(=O)[C@H](CCCCN)NC(=O)[C@H](Cc2c[nH]c3ccccc23)NC(=O)[C@H](Cc2ccccc2)NC(=O)[C@H](Cc2ccccc2)NC(=O)[C@H](CC(N)=O)NC(=O)[C@H](CCCCN)NC1=O [somatostatin-14] | non-competing ligand |
